Holding throughout (format): functional
Assay [1] has as its system Staphylococcus aureus. The experiment in a line: Antibiofilm activity against Staphylococcus aureus NCIM-2079 after 16 hrs.
Another assay deals with Bacillus cereus. The experiment in a line: Antibacterial activity against Bacillus cereus NCIM-2156 after 24 hrs by broth dilution method. Particulars: NCIM-2156, 24 h. For orientation: Broth dilution looks for growth in wells or tubes with falling amounts of substance.
Assay [2] concerns Staphylococcus aureus. Kind of assay: Antibacterial activity against Staphylococcus aureus NCIM-2079 after 24 hrs by broth dilution method. Particulars: NCIM-2079, 24 h.
The next assay has as its system Escherichia coli. Kind of assay: Antibacterial activity against Escherichia coli NCIM-2065 after 24 hrs by broth dilution method. The conditions noted are these: NCIM-2065, 24 h.
In another assay the test system is Proteus vulgaris. The experiment in a line: Antibacterial activity against Proteus vulgaris NCIM-2027 after 24 hrs by broth dilution method. Particulars: NCIM-2027, 24 h.
The next assay relates to Bacillus subtilis. The experiment in a line: Antibacterial activity against Bacillus subtilis NCIM-2063 after 24 hrs by broth dilution method. The conditions noted are these: NCIM-2063, 24 h.
A further assay relates to Pseudomonas aeruginosa. Kind of assay: Antibacterial activity against Pseudomonas aeruginosa NCIM-2036 after 24 hrs by broth dilution method. Particulars: NCIM-2036, 24 h.

Values after ≈ are worked out from the molar mass of the structure shown.

Turning to `S=C(Nc1nc(Nc2ccc(Cl)cc2)nc(Nc2ccc(Cl)cc2)n1)N1N=C(c2ccccc2)CC1c1ccccc1` (configuration not stated), the Activity in the assay with Staphylococcus aureus [1] was 31.25 µg/mL. Besides, the MIC against Bacillus cereus was determined as 31.2 µg/mL (≈ 51.1 µM); with Staphylococcus aureus [2], 15.6 µg/mL (≈ 25.5 µM); in the assay on Escherichia coli, 31.2 µg/mL (≈ 51.1 µM); against Proteus vulgaris, 15.6 µg/mL (≈ 25.5 µM); in the assay on Bacillus subtilis it was 7.81 µg/mL (≈ 12.8 µM); in the assay with Pseudomonas aeruginosa, 31.2 µg/mL (≈ 51.1 µM).
With `O=[N+]([O-])c1ccccc1C1CC(c2ccccc2)=NN1C(=S)Nc1nc(Nc2ccc(Cl)cc2)nc(Nc2ccc(Cl)cc2)n1` (configuration not stated), the Activity in the assay with Staphylococcus aureus [1] is 125 µg/mL. In addition, the MIC came to 31.2 µg/mL (≈ 47.6 µM) against Bacillus cereus; 62.5 µg/mL (≈ 95.2 µM) with Staphylococcus aureus [2]; 125 µg/mL (≈ 190 µM) in the assay on Escherichia coli; 62.5 µg/mL (≈ 95.2 µM) in the assay with Proteus vulgaris; 15.6 µg/mL (≈ 23.8 µM) in the assay on Bacillus subtilis; 125 µg/mL (≈ 190 µM) against Pseudomonas aeruginosa.
As to `O=[N+]([O-])c1ccc(C2CC(c3ccccc3)=NN2C(=S)Nc2nc(Nc3ccc(Cl)cc3)nc(Nc3ccc(Cl)cc3)n2)cc1` (configuration not stated), the Activity in the assay with Staphylococcus aureus [1] is 125 µg/mL. Also, the MIC was 125 µg/mL (≈ 190 µM) in the assay with Bacillus cereus; 125 µg/mL (≈ 190 µM) against Staphylococcus aureus [2]; 62.5 µg/mL (≈ 95.2 µM) against Escherichia coli; 62.5 µg/mL (≈ 95.2 µM) in the assay with Proteus vulgaris; 31.2 µg/mL (≈ 47.6 µM) with Bacillus subtilis; 62.5 µg/mL (≈ 95.2 µM) against Pseudomonas aeruginosa.
The compound `S=C(Nc1nc(Nc2ccc(Cl)cc2)nc(Nc2ccc(Cl)cc2)n1)N1N=C(c2ccccc2)CC1c1ccccc1Cl` (configuration not stated) registered an Activity in the assay on Staphylococcus aureus [1] of 31.25 µg/mL. For the same compound, the MIC with Bacillus cereus was determined as 62.5 µg/mL (≈ 96.7 µM); against Staphylococcus aureus [2] it was 15.6 µg/mL (≈ 24.2 µM); in the assay with Escherichia coli, 15.6 µg/mL (≈ 24.2 µM); against Proteus vulgaris it was 15.6 µg/mL (≈ 24.2 µM); with Bacillus subtilis, 3.91 µg/mL (≈ 6.05 µM); in the assay with Pseudomonas aeruginosa it was 15.6 µg/mL (≈ 24.2 µM).
Consider `S=C(Nc1nc(Nc2ccc(Cl)cc2)nc(Nc2ccc(Cl)cc2)n1)N1N=C(c2ccccc2)CC1c1ccc(Cl)cc1` (configuration not stated), for which the Activity in the assay on Staphylococcus aureus [1] is 62.5 µg/mL. For the same compound, the MIC against Bacillus cereus was 15.6 µg/mL (≈ 24.2 µM); with Staphylococcus aureus [2], 15.6 µg/mL (≈ 24.2 µM); against Escherichia coli, 7.81 µg/mL (≈ 12.1 µM); in the assay on Proteus vulgaris it was 15.6 µg/mL (≈ 24.2 µM); in the assay with Bacillus subtilis it was 3.91 µg/mL (≈ 6.05 µM); against Pseudomonas aeruginosa, 7.81 µg/mL (≈ 12.1 µM).
In the assay with Staphylococcus aureus [1], `O=[N+]([O-])c1cccc(Nc2nc(NC(=S)N3N=C(c4ccccc4)CC3c3ccccc3)nc(Nc3cccc([N+](=O)[O-])c3)n2)c1` (configuration not stated) came in with an Activity of 31.25 µg/mL. Further, the MIC in the assay with Bacillus cereus was found to be 7.81 µg/mL (≈ 12.3 µM); in the assay on Staphylococcus aureus [2], 7.81 µg/mL (≈ 12.3 µM); with Escherichia coli, 7.81 µg/mL (≈ 12.3 µM); against Proteus vulgaris, 7.81 µg/mL (≈ 12.3 µM); against Bacillus subtilis it was 15.6 µg/mL (≈ 24.7 µM); against Pseudomonas aeruginosa, 7.81 µg/mL (≈ 12.3 µM).
Regarding `O=[N+]([O-])c1cccc(Nc2nc(NC(=S)N3N=C(c4ccccc4)CC3c3ccccc3[N+](=O)[O-])nc(Nc3cccc([N+](=O)[O-])c3)n2)c1` (configuration not stated), in the assay on Staphylococcus aureus [1], the Activity came to 125 µg/mL. Further, the MIC turned out to be 62.5 µg/mL (≈ 92.2 µM) with Bacillus cereus; 15.6 µg/mL (≈ 23 µM) against Staphylococcus aureus [2]; 125 µg/mL (≈ 184 µM) against Escherichia coli; 62.5 µg/mL (≈ 92.2 µM) against Proteus vulgaris; 62.5 µg/mL (≈ 92.2 µM) against Bacillus subtilis; 125 µg/mL (≈ 184 µM) against Pseudomonas aeruginosa.
Turning to `O=[N+]([O-])c1ccc(C2CC(c3ccccc3)=NN2C(=S)Nc2nc(Nc3cccc([N+](=O)[O-])c3)nc(Nc3cccc([N+](=O)[O-])c3)n2)cc1` (configuration not stated), the Activity with Staphylococcus aureus [1] was found to be 62.5 µg/mL. The MIC is 125 µg/mL (≈ 184 µM) against Bacillus cereus; 31.2 µg/mL (≈ 46.1 µM) in the assay with Staphylococcus aureus [2]; 62.5 µg/mL (≈ 92.2 µM) in the assay on Escherichia coli; 62.5 µg/mL (≈ 92.2 µM) against Proteus vulgaris; 31.2 µg/mL (≈ 46.1 µM) against Bacillus subtilis; 62.5 µg/mL (≈ 92.2 µM) in the assay with Pseudomonas aeruginosa.
For `O=[N+]([O-])c1cccc(Nc2nc(NC(=S)N3N=C(c4ccccc4)CC3c3ccccc3Cl)nc(Nc3cccc([N+](=O)[O-])c3)n2)c1` (configuration not stated), the Activity in the assay with Staphylococcus aureus [1] worked out at 62.5 µg/mL. For the same compound, the MIC in the assay with Bacillus cereus stood at 15.6 µg/mL (≈ 23.4 µM); in the assay on Staphylococcus aureus [2], 15.6 µg/mL (≈ 23.4 µM); against Escherichia coli it was 15.6 µg/mL (≈ 23.4 µM); in the assay with Proteus vulgaris, 31.2 µg/mL (≈ 46.8 µM); with Bacillus subtilis, 15.6 µg/mL (≈ 23.4 µM); in the assay on Pseudomonas aeruginosa, 15.6 µg/mL (≈ 23.4 µM).
In the assay with Staphylococcus aureus [1], `O=[N+]([O-])c1cccc(Nc2nc(NC(=S)N3N=C(c4ccccc4)CC3c3ccc(Cl)cc3)nc(Nc3cccc([N+](=O)[O-])c3)n2)c1` (configuration not stated) showed an Activity of 15.62 µg/mL. For the same compound, the MIC in the assay with Bacillus cereus turned out to be 7.81 µg/mL (≈ 11.7 µM); against Staphylococcus aureus [2], 15.6 µg/mL (≈ 23.4 µM); with Escherichia coli, 31.2 µg/mL (≈ 46.8 µM); against Proteus vulgaris, 15.6 µg/mL (≈ 23.4 µM); in the assay on Bacillus subtilis, 7.81 µg/mL (≈ 11.7 µM); in the assay with Pseudomonas aeruginosa it was 31.2 µg/mL (≈ 46.8 µM).
Compound `Fc1ccc(Nc2nc(NC(=S)N3N=C(c4ccccc4)CC3c3ccccc3)nc(Nc3ccc(F)cc3)n2)cc1` (configuration not stated) came in with an Activity in the assay with Staphylococcus aureus [1] of 15.62 µg/mL. Besides, the MIC against Bacillus cereus came to 3.91 µg/mL (≈ 6.76 µM); in the assay on Staphylococcus aureus [2] it was 7.81 µg/mL (≈ 13.5 µM); against Escherichia coli, 15.6 µg/mL (≈ 27 µM); in the assay on Proteus vulgaris, 15.6 µg/mL (≈ 27 µM); against Bacillus subtilis, 7.81 µg/mL (≈ 13.5 µM); in the assay with Pseudomonas aeruginosa, 15.6 µg/mL (≈ 27 µM).
`O=[N+]([O-])c1ccccc1C1CC(c2ccccc2)=NN1C(=S)Nc1nc(Nc2ccc(F)cc2)nc(Nc2ccc(F)cc2)n1` (configuration not stated) displayed an Activity with Staphylococcus aureus [1] of 31.25 µg/mL. Moreover, the MIC against Bacillus cereus came out at 62.5 µg/mL (≈ 100 µM); against Staphylococcus aureus [2], 31.2 µg/mL (≈ 50.1 µM); in the assay on Escherichia coli, 31.2 µg/mL (≈ 50.1 µM); against Proteus vulgaris it was 31.2 µg/mL (≈ 50.1 µM); with Bacillus subtilis, 31.2 µg/mL (≈ 50.1 µM); against Pseudomonas aeruginosa, 31.2 µg/mL (≈ 50.1 µM).
As to `O=[N+]([O-])c1ccc(C2CC(c3ccccc3)=NN2C(=S)Nc2nc(Nc3ccc(F)cc3)nc(Nc3ccc(F)cc3)n2)cc1` (configuration not stated), in the assay on Staphylococcus aureus [1], the Activity is 62.5 µg/mL. Moreover, the MIC worked out at 31.2 µg/mL (≈ 50.1 µM) in the assay with Bacillus cereus; 31.2 µg/mL (≈ 50.1 µM) against Staphylococcus aureus [2]; 31.2 µg/mL (≈ 50.1 µM) against Escherichia coli; 62.5 µg/mL (≈ 100 µM) with Proteus vulgaris; 15.6 µg/mL (≈ 25 µM) in the assay on Bacillus subtilis; 31.2 µg/mL (≈ 50.1 µM) in the assay with Pseudomonas aeruginosa.
`Fc1ccc(Nc2nc(NC(=S)N3N=C(c4ccccc4)CC3c3ccccc3Cl)nc(Nc3ccc(F)cc3)n2)cc1` (configuration not stated) had an Activity in the assay on Staphylococcus aureus [1] of 62.5 µg/mL. Besides, the MIC with Bacillus cereus came out at 15.6 µg/mL (≈ 25.5 µM); with Staphylococcus aureus [2], 15.6 µg/mL (≈ 25.5 µM); with Escherichia coli, 15.6 µg/mL (≈ 25.5 µM); in the assay on Proteus vulgaris, 7.81 µg/mL (≈ 12.7 µM); in the assay with Bacillus subtilis, 7.81 µg/mL (≈ 12.7 µM); in the assay with Pseudomonas aeruginosa, 15.6 µg/mL (≈ 25.5 µM).
With `Fc1ccc(Nc2nc(NC(=S)N3N=C(c4ccccc4)CC3c3ccc(Cl)cc3)nc(Nc3ccc(F)cc3)n2)cc1` (configuration not stated), the Activity in the assay on Staphylococcus aureus [1] worked out at 31.25 µg/mL. The minimum inhibitory concentration (MIC) is 7.81 µg/mL (≈ 12.7 µM) against Bacillus cereus; 31.2 µg/mL (≈ 51 µM) against Staphylococcus aureus [2]; 7.81 µg/mL (≈ 12.7 µM) in the assay with Escherichia coli; 15.6 µg/mL (≈ 25.5 µM) against Proteus vulgaris; 3.91 µg/mL (≈ 6.38 µM) against Bacillus subtilis; 7.81 µg/mL (≈ 12.7 µM) in the assay with Pseudomonas aeruginosa.
Regarding `C=CC1=C(C(=O)O)N2C(=O)[C@@H](NC(=O)/C(=N\OCC(=O)O)c3csc(N)n3)[C@H]2SC1` [CEFIXIME], the MIC was 3.91 µg/mL (≈ 8.62 µM) with Bacillus cereus; 7.81 µg/mL (≈ 17.2 µM) against Staphylococcus aureus [2]; 3.91 µg/mL (≈ 8.62 µM) against Escherichia coli; 7.81 µg/mL (≈ 17.2 µM) against Proteus vulgaris; 1.95 µg/mL (≈ 4.3 µM) against Bacillus subtilis; 3.91 µg/mL (≈ 8.62 µM) with Pseudomonas aeruginosa.
For `CN[C@H](CC(C)C)C(=O)N[C@H]1C(=O)N[C@@H](CC(N)=O)C(=O)N[C@H]2C(=O)N[C@H]3C(=O)N[C@H](C(=O)N[C@H](C(=O)O)c4cc(O)cc(O)c4-c4cc3ccc4O)[C@H](O)c3ccc(c(Cl)c3)Oc3cc2cc(c3O[C@@H]2O[C@H](CO)[C@@H](O)[C@H](O)[C@H]2O[C@H]2C[C@](C)(N)[C@H](O)[C@H](C)O2)Oc2ccc(cc2Cl)[C@H]1O` [VANCOMYCIN], in the assay with Staphylococcus aureus [1], the Activity turned out to be 3.91 µg/mL.

As usually defined, the MIC is the lowest concentration that inhibits growth of the organism. Lower therefore signals greater potency.

(Values after ChEMBL document CHEMBL3352800, “Structure-guided discovery of 1,3,5-triazine-pyrazole conjugates as antibacterial and antibiofilm agent against pathogens causing human diseases with favorable metabolic fate” (2014).)
